Species on record: Rattus norvegicus
Test: DrugMatrix - Regimen: Daily Repeat
Assay type: toxicity, organism-based, Sprague-Dawley
Parameters: regimen Daily Repeat, gender Male, age 6-8 weeks
Conditions: in vivo, po, route oral GAVAGE, […]; for ABSOLUTE BASOPHIL / ABSOLUTE EOSINOPHIL / ABSOLUTE LYMPHOCYTE / ABSOLUTE MONOCYTE / ABSOLUTE SEGMENTED NEUTROPHIL / BASOPHIL / EOSINOPHIL / ERYTHROCYTE COUNT / HEMATOCRIT / HEMOGLOBIN / LEUKOCYTE COUNT / LYMPHOCYTE / MEAN CORPUSCULAR HEMOGLOBIN / MEAN CORPUSCULAR HEMOGLOBIN CONCENTRATION / MEAN CORPUSCULAR VOLUME / MONOCYTE / NEUTROPHIL / NUCLEATED RED BLOOD CELLS / PLATELET COUNT: tissue Blood; for ALANINE AMINOTRANSFERASE / ALBUMIN / ALKALINE PHOSPHATASE / ASPARTATE AMINOTRANSFERASE / BLOOD UREA NITROGEN / CARBON DIOXIDE / CHLORIDE / CHOLESTEROL / CREATINE PHOSPHOKINASE / CREATININE / GLUCOSE / LACTATE DEHYDROGENASE / LIPASE / PHOSPHORUS / POTASSIUM / SODIUM / TOTAL BILIRUBIN / TOTAL PROTEIN / URIC ACID: tissue Plasma
[1] = 0 mg/kg, 72 h, dose level Control, time 3 day
[2] = 0 mg/kg, 120 h, dose level Control, time 5 day
[3] = 5 mg/kg, 72 h, dose level Low, time 3 day

O=C(Nc1ccc(Cl)c(Cl)c1)c1cc(Cl)cc(Cl)c1O [3,3',4',5-TETRACHLOROSALICYLANILIDE]
ABSOLUTE BASOPHIL [1]: 0 CELLS/uL
ABSOLUTE EOSINOPHIL [1]: 0 CELLS/uL
ABSOLUTE LYMPHOCYTE [1]: 11091.17 CELLS/uL
ABSOLUTE MONOCYTE [1]: 172.17 CELLS/uL
ABSOLUTE SEGMENTED NEUTROPHIL [1]: 1186.67 CELLS/uL
BASOPHIL [1]: 0%
EOSINOPHIL [1]: 0%
ERYTHROCYTE COUNT [1]: 5.87 x10E6/uL
HEMATOCRIT [1]: 36.87%
HEMOGLOBIN [1]: 14.03 G/DL
LEUKOCYTE COUNT [1]: 12.45 x10E3/uL
LYMPHOCYTE [1]: 88.67%
MEAN CORPUSCULAR HEMOGLOBIN [1]: 23.93 pg
MEAN CORPUSCULAR HEMOGLOBIN CONCENTRATION [1]: 38.1 G/DL
MEAN CORPUSCULAR VOLUME [1]: 62.73 fL
MONOCYTE [1]: 1.5%
NEUTROPHIL [1]: 9.83%
NUCLEATED RED BLOOD CELLS [1]: 0 /100WBC
PLATELET COUNT [1]: 1150.33 x10E3/uL
ALANINE AMINOTRANSFERASE [1]: 67.17 u/L
ALBUMIN [1]: 4.03 G/DL
ALKALINE PHOSPHATASE [1]: 462.5 u/L
ASPARTATE AMINOTRANSFERASE [1]: 88 u/L
BLOOD UREA NITROGEN [1]: 13.17 mg/dL
CARBON DIOXIDE [1]: 29.33 mmol/L
CHLORIDE [1]: 101 MEQ/L
CHOLESTEROL [1]: 69.17 mg/dL
CREATINE PHOSPHOKINASE [1]: 292.5 u/L
CREATININE [1]: 0.17 mg/dL
GLUCOSE [1]: 167.5 mg/dL
LACTATE DEHYDROGENASE [1]: 198.5 u/L
LIPASE [1]: 10.67 u/L
PHOSPHORUS [1]: 11.73 mg/dL
POTASSIUM [1]: 5.91 MEQ/L
SODIUM [1]: 143.3 MEQ/L
TOTAL BILIRUBIN [1]: 0.18 mg/dL
TOTAL PROTEIN [1]: 5.7 G/DL
URIC ACID [1]: 1.3 mg/dL
ABSOLUTE BASOPHIL [2]: 0 CELLS/uL
ABSOLUTE EOSINOPHIL [2]: 64.33 CELLS/uL
ABSOLUTE LYMPHOCYTE [2]: 12494.67 CELLS/uL
ABSOLUTE MONOCYTE [2]: 117 CELLS/uL
ABSOLUTE SEGMENTED NEUTROPHIL [2]: 1340.67 CELLS/uL
BASOPHIL [2]: 0%
EOSINOPHIL [2]: 0.33%
ERYTHROCYTE COUNT [2]: 5.82 x10E6/uL
HEMATOCRIT [2]: 36.97%
HEMOGLOBIN [2]: 14.18 G/DL
LEUKOCYTE COUNT [2]: 14.02 x10E3/uL
LYMPHOCYTE [2]: 89%
MEAN CORPUSCULAR HEMOGLOBIN [2]: 24.42 pg
MEAN CORPUSCULAR HEMOGLOBIN CONCENTRATION [2]: 38.4 G/DL
MEAN CORPUSCULAR VOLUME [2]: 63.52 fL
MONOCYTE [2]: 0.83%
NEUTROPHIL [2]: 9.83%
NUCLEATED RED BLOOD CELLS [2]: 0 /100WBC
PLATELET COUNT [2]: 1097.83 x10E3/uL
ALANINE AMINOTRANSFERASE [2]: 58.83 u/L
ALBUMIN [2]: 3.92 G/DL
ALKALINE PHOSPHATASE [2]: 414.17 u/L
ASPARTATE AMINOTRANSFERASE [2]: 89.17 u/L
BLOOD UREA NITROGEN [2]: 16.83 mg/dL
CARBON DIOXIDE [2]: 29.17 mmol/L
CHLORIDE [2]: 100.33 MEQ/L
CHOLESTEROL [2]: 54.5 mg/dL
CREATINE PHOSPHOKINASE [2]: 386.17 u/L
CREATININE [2]: 0.23 mg/dL
GLUCOSE [2]: 184.17 mg/dL
LACTATE DEHYDROGENASE [2]: 229.17 u/L
LIPASE [2]: 10.83 u/L
PHOSPHORUS [2]: 10.88 mg/dL
POTASSIUM [2]: 5.97 MEQ/L
SODIUM [2]: 142.2 MEQ/L
TOTAL BILIRUBIN [2]: 0.12 mg/dL
TOTAL PROTEIN [2]: 5.63 G/DL
URIC ACID [2]: 1.55 mg/dL
ABSOLUTE BASOPHIL [3]: 0 CELLS/uL
ABSOLUTE EOSINOPHIL [3]: 173.67 CELLS/uL
ABSOLUTE LYMPHOCYTE [3]: 11546 CELLS/uL
ABSOLUTE MONOCYTE [3]: 53.33 CELLS/uL
ABSOLUTE SEGMENTED NEUTROPHIL [3]: 1927 CELLS/uL
BASOPHIL [3]: 0%
EOSINOPHIL [3]: 1.33%
ERYTHROCYTE COUNT [3]: 5.84 x10E6/uL
HEMATOCRIT [3]: 36.37%
HEMOGLOBIN [3]: 14.03 G/DL
LEUKOCYTE COUNT [3]: 13.7 x10E3/uL
LYMPHOCYTE [3]: 84%
MEAN CORPUSCULAR HEMOGLOBIN [3]: 24.03 pg
MEAN CORPUSCULAR HEMOGLOBIN CONCENTRATION [3]: 38.6 G/DL
MEAN CORPUSCULAR VOLUME [3]: 62.27 fL
MONOCYTE [3]: 0.33%
NEUTROPHIL [3]: 14.33%
NUCLEATED RED BLOOD CELLS [3]: 0 /100WBC
PLATELET COUNT [3]: 1088.67 x10E3/uL
ALANINE AMINOTRANSFERASE [3]: 64 u/L
ALBUMIN [3]: 3.97 G/DL
ALKALINE PHOSPHATASE [3]: 434.67 u/L
ASPARTATE AMINOTRANSFERASE [3]: 108.33 u/L
BLOOD UREA NITROGEN [3]: 14 mg/dL
CARBON DIOXIDE [3]: 23 mmol/L
CHLORIDE [3]: 102.33 MEQ/L
CHOLESTEROL [3]: 66.33 mg/dL
CREATINE PHOSPHOKINASE [3]: 588 u/L
CREATININE [3]: 0.19 mg/dL
GLUCOSE [3]: 171.67 mg/dL
LACTATE DEHYDROGENASE [3]: 260 u/L
LIPASE [3]: 9.67 u/L
PHOSPHORUS [3]: 12.87 mg/dL
POTASSIUM [3]: 6.31 MEQ/L
SODIUM [3]: 141.93 MEQ/L
TOTAL BILIRUBIN [3]: 0.13 mg/dL
TOTAL PROTEIN [3]: 5.57 G/DL
URIC ACID [3]: 1.83 mg/dL

— ChEMBL document CHEMBL3885881, “DrugMatrix”
